This passage reports EC50 results from US11541028B2, “Peptide pharmaceuticals for treatment of NASH and other disorders” (Mederis Diabetes LLC, priority 2018, dated 2023).

Read-outs that look alike come from different tables or passages of the source.

For one assay, the target named is T1, human GLP-1 receptor (Homo sapiens, UniProt P43220).
T1 construct: host or cells: CHO cells
As to the kind of experiment: DiscoveRx LeadHunter cellular assay, cAMP stimulation, GLP-1 receptor in CHO cells. It counts as cell-based. As to conditions: human GLP-1 receptor in CHO cells (DiscoveRx); read-out: EC50 cAMP GLP-1 R.

For another assay, the target named is T2, human glucagon receptor (Homo sapiens, UniProt P47871).
T2 construct: host or cells: CHO cells
T2 sequence (P47871 26-477): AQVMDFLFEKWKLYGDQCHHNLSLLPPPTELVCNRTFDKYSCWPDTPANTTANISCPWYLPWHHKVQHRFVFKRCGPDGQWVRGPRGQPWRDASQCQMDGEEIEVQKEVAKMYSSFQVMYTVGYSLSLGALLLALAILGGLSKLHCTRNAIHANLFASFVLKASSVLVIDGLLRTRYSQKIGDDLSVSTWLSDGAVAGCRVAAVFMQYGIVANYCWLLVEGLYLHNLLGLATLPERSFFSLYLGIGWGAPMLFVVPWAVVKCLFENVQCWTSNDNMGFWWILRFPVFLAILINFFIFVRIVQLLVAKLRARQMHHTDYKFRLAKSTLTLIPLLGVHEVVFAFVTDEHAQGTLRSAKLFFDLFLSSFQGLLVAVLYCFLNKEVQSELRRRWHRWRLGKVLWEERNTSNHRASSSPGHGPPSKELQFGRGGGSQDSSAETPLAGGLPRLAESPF
The assay can be described thus: DiscoveRx LeadHunter cellular assay, cAMP stimulation, glucagon receptor in CHO cells. It counts as cell-based.

T1 sequence (P43220 24-463): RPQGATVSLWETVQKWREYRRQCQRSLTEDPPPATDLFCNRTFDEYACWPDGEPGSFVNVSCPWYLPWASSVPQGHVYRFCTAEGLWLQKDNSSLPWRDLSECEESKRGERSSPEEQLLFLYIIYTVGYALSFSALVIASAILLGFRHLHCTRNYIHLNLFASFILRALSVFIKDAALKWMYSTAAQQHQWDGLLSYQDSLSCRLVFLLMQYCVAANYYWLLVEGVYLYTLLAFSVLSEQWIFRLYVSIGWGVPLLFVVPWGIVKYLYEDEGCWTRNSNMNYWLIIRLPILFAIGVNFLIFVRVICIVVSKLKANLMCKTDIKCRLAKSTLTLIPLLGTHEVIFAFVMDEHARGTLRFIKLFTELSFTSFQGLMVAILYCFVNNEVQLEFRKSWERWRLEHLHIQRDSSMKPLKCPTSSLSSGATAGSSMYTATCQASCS
Protocol for human GLP-1 receptor: (§1) A further series of cellular assays was carried out with standard cellular assays (DiscoveRx, LeadHunter assays) using readout of cAMP stimulation or arrestin activation. Compounds were weighed precisely in an amount of about 1 mg and shipped to DiscoveRx for dilution and assay.
Protocol for human glucagon receptor: as §1

On to `CCCCCCCCCCCCCCCCO[C@@H]1O[C@H](C(=O)NCCCC[C@H](N)C(=O)NCCCC[C@H](NC(=O)[C@@H](NC(=O)[C@H](Cc2ccccc2)NC(=O)[C@H](CCC(=O)O)NC(=O)[C@@H]2CCCCNC(=O)CC[C@H](NC(=O)[C@H](CC(=O)O)NC(=O)[C@H](CC(C)C)NC(=O)[C@H](Cc3ccc(O)cc3)NC(=O)[C@H](CCCCN)NC(=O)[C@H](CO)NC(=O)[C@H](Cc3ccc(O)cc3)NC(=O)[C@H](CC(=O)O)NC(=O)[C@H](CO)NC(=O)[C@@H](NC(=O)[C@H](Cc3ccccc3)NC(=O)[C@@H](NC(=O)CNC(=O)[C@H](CCC(N)=O)NC(=O)C(C)(C)NC(=O)[C@@H](N)Cc3c[nH]cn3)[C@@H](C)O)[C@@H](C)O)C(=O)N[C@@H](CCC(N)=O)C(=O)N[C@@H](C)C(=O)N[C@@H](C)C(=O)N2)[C@@H](C)CC)C(=O)N[C@@H](Cc2c[nH]c3ccccc23)C(=O)N[C@@H](CC(C)C)C(=O)N[C@@H](CC(C)C)C(=O)N[C@@H](CCC(N)=O)C(=O)N[C@H](C(N)=O)[C@@H](C)O)[C@@H](O)[C@H](O)[C@H]1O` [EU-A1713], for which the values for the EC50 on human GLP-1 receptor and at human glucagon receptor were 0.308 nM and 2.51 nM, respectively.

For `CCCCCCCCCCO[C@@H]1O[C@H](C(=O)N[C@@H](CCC(=O)NCCCC[C@H](NC(=O)[C@@H](NC(=O)[C@H](Cc2ccccc2)NC(=O)[C@H](CCC(=O)O)NC(=O)[C@@H]2CCCCNC(=O)CC[C@H](NC(=O)[C@H](CC(=O)O)NC(=O)[C@H](CC(C)C)NC(=O)[C@H](Cc3ccc(O)cc3)NC(=O)[C@H](CCCCN)NC(=O)[C@H](CO)NC(=O)[C@H](Cc3ccc(O)cc3)NC(=O)[C@H](CC(=O)O)NC(=O)[C@H](CO)NC(=O)[C@@H](NC(=O)[C@H](Cc3ccccc3)NC(=O)[C@@H](NC(=O)CNC(=O)[C@H](CCC(N)=O)NC(=O)C(C)(C)NC(=O)[C@@H](N)Cc3c[nH]cn3)[C@@H](C)O)[C@@H](C)O)C(=O)N[C@@H](CCC(N)=O)C(=O)N[C@@H](C)C(=O)N[C@@H](C)C(=O)N2)[C@@H](C)CC)C(=O)N[C@@H](Cc2c[nH]c3ccccc23)C(=O)N[C@@H](CC(C)C)C(=O)N[C@@H](CC(C)C)C(=O)N[C@@H](CCC(N)=O)C(=O)N[C@H](C(N)=O)[C@@H](C)O)C(=O)O)[C@@H](O)[C@H](O)[C@H]1O` [EU-A1716], the EC50 (usually the concentration giving half of the maximal effect) was found to be 0.013 nM on human GLP-1 receptor and 0.032 nM on human glucagon receptor.

Consider `CCCCCCCCCCCCO[C@@H]1O[C@H](C(=O)N[C@@H](CCC(=O)NCCCC[C@H](NC(=O)[C@@H](NC(=O)[C@H](Cc2ccccc2)NC(=O)[C@H](CCC(=O)O)NC(=O)[C@@H]2CCCCNC(=O)CC[C@H](NC(=O)[C@H](CC(=O)O)NC(=O)[C@H](CC(C)C)NC(=O)[C@H](Cc3ccc(O)cc3)NC(=O)[C@H](CCCCN)NC(=O)[C@H](CO)NC(=O)[C@H](Cc3ccc(O)cc3)NC(=O)[C@H](CC(=O)O)NC(=O)[C@H](CO)NC(=O)[C@@H](NC(=O)[C@H](Cc3ccccc3)NC(=O)[C@@H](NC(=O)CNC(=O)[C@H](CCC(N)=O)NC(=O)C(C)(C)NC(=O)[C@@H](N)Cc3c[nH]cn3)[C@@H](C)O)[C@@H](C)O)C(=O)N[C@@H](CCC(N)=O)C(=O)N[C@@H](C)C(=O)N[C@@H](C)C(=O)N2)[C@@H](C)CC)C(=O)N[C@@H](Cc2c[nH]c3ccccc23)C(=O)N[C@@H](CC(C)C)C(=O)N[C@@H](CC(C)C)C(=O)N[C@@H](CCC(N)=O)C(=O)N[C@H](C(N)=O)[C@@H](C)O)C(=O)O)[C@@H](O)[C@H](O)[C@H]1O` [EU-A1717], for which the EC50 on human GLP-1 receptor was 0.011 nM; at human glucagon receptor it was 0.035 nM.

As for `CCCCCCCCCCCCCCO[C@@H]1O[C@H](C(=O)N[C@@H](CCC(=O)NCCCC[C@H](NC(=O)[C@@H](NC(=O)[C@H](Cc2ccccc2)NC(=O)[C@H](CCC(=O)O)NC(=O)[C@@H]2CCCCNC(=O)CC[C@H](NC(=O)[C@H](CC(=O)O)NC(=O)[C@H](CC(C)C)NC(=O)[C@H](Cc3ccc(O)cc3)NC(=O)[C@H](CCCCN)NC(=O)[C@H](CO)NC(=O)[C@H](Cc3ccc(O)cc3)NC(=O)[C@H](CC(=O)O)NC(=O)[C@H](CO)NC(=O)[C@@H](NC(=O)[C@H](Cc3ccccc3)NC(=O)[C@@H](NC(=O)CNC(=O)[C@H](CCC(N)=O)NC(=O)C(C)(C)NC(=O)[C@@H](N)Cc3c[nH]cn3)[C@@H](C)O)[C@@H](C)O)C(=O)N[C@@H](CCC(N)=O)C(=O)N[C@@H](C)C(=O)N[C@@H](C)C(=O)N2)[C@@H](C)CC)C(=O)N[C@@H](Cc2c[nH]c3ccccc23)C(=O)N[C@@H](CC(C)C)C(=O)N[C@@H](CC(C)C)C(=O)N[C@@H](CCC(N)=O)C(=O)N[C@H](C(N)=O)[C@@H](C)O)C(=O)O)[C@@H](O)[C@H](O)[C@H]1O` [EU-A1718], the EC50 at human GLP-1 receptor came out at 0.043 nM; on human glucagon receptor (read-out: EC50 cAMP Glucagon R, human glucagon receptor in CHO cells (DiscoveRx)) it was 0.097 nM.

In the case of `CCCCCCCCCCCCCCCCO[C@@H]1O[C@H](C(=O)N[C@@H](CCC(=O)NCCCC[C@H](NC(=O)[C@@H](NC(=O)[C@H](Cc2ccccc2)NC(=O)[C@H](CCC(=O)O)NC(=O)[C@@H]2CCCCNC(=O)CC[C@H](NC(=O)[C@H](CC(=O)O)NC(=O)[C@H](CC(C)C)NC(=O)[C@H](Cc3ccc(O)cc3)NC(=O)[C@H](CCCCN)NC(=O)[C@H](CO)NC(=O)[C@H](Cc3ccc(O)cc3)NC(=O)[C@H](CC(=O)O)NC(=O)[C@H](CO)NC(=O)[C@@H](NC(=O)[C@H](Cc3ccccc3)NC(=O)[C@@H](NC(=O)CNC(=O)[C@H](CCC(N)=O)NC(=O)C(C)(C)NC(=O)[C@@H](N)Cc3c[nH]cn3)[C@@H](C)O)[C@@H](C)O)C(=O)N[C@@H](CCC(N)=O)C(=O)N[C@@H](C)C(=O)N[C@@H](C)C(=O)N2)[C@@H](C)CC)C(=O)N[C@@H](Cc2c[nH]c3ccccc23)C(=O)N[C@@H](CC(C)C)C(=O)N[C@@H](CC(C)C)C(=O)N[C@@H](CCC(N)=O)C(=O)N[C@H](C(N)=O)[C@@H](C)O)C(=O)O)[C@@H](O)[C@H](O)[C@H]1O` [EU-A1719], the results for the EC50 at human GLP-1 receptor and on human glucagon receptor were 0.095 nM and 0.746 nM, respectively.

As to `CCCCCCCCCCO[C@@H]1O[C@H](C(=O)N[C@@H](CCC(=O)N[C@@H](CCC(=O)NCCCC[C@H](NC(=O)[C@@H](NC(=O)[C@H](Cc2ccccc2)NC(=O)[C@H](CCC(=O)O)NC(=O)[C@@H]2CCCCNC(=O)CC[C@H](NC(=O)[C@H](CC(=O)O)NC(=O)[C@H](CC(C)C)NC(=O)[C@H](Cc3ccc(O)cc3)NC(=O)[C@H](CCCCN)NC(=O)[C@H](CO)NC(=O)[C@H](Cc3ccc(O)cc3)NC(=O)[C@H](CC(=O)O)NC(=O)[C@H](CO)NC(=O)[C@@H](NC(=O)[C@H](Cc3ccccc3)NC(=O)[C@@H](NC(=O)CNC(=O)[C@H](CCC(N)=O)NC(=O)C(C)(C)NC(=O)[C@@H](N)Cc3c[nH]cn3)[C@@H](C)O)[C@@H](C)O)C(=O)N[C@@H](CCC(N)=O)C(=O)N[C@@H](C)C(=O)N[C@@H](C)C(=O)N2)[C@@H](C)CC)C(=O)N[C@@H](Cc2c[nH]c3ccccc23)C(=O)N[C@@H](CC(C)C)C(=O)N[C@@H](CC(C)C)C(=O)N[C@@H](CCC(N)=O)C(=O)N[C@H](C(N)=O)[C@@H](C)O)C(=O)O)C(=O)O)[C@@H](O)[C@H](O)[C@H]1O` [EU-A1722], the EC50 amounted to 0.006 nM on human GLP-1 receptor and 0.012 nM at human glucagon receptor.
